Source: patent publication US20120276212A1, “COMPOSITION COMPRISING PLANT AND/OR FISH OILS AND NON-OXIDIZABLE FATTY ACID ENTITIES” (LIFE SCIENCE NUTRITION AS, priority 2004, published 2012)

How the values were obtained:
[1] = degradation time in vivo of ω-oxidation blocked analogue
Source text: ω-oxidation is believed to be the main pathway for degradation of the fatty acid analogues as described with a block in the X position. Experiments were thus performed where R′ was changed to block ω-oxidation, by introducing a triple bond at the methyl end of the fatty acid analogue. […] This is important for the use of the fatty acid analogues in pharmaceutical preparation, as it may potentiate the effects of the β-oxidizable fatty acid analogues by further slowing down their breakdown.

[2] = system: mitochondrial β-oxidation in the liver; assay: activity of mitochondrial β-oxidation in the liver of fatty acid analogues; conditions: in vivo
Source text: Although all fatty acid anagoges with an odd positioning of the β-oxidation blocker X away from the carboxylic end block β-oxidation, the extent of their biological effect may be variable. This is due to the difference in biological degradation time of the various compounds. The inventors have done experiments to show the effect of moving X further from the carboxylic fatty acid end. In these experiments the activity (in nmol/min/mg/protein) of mitochondrial β-oxidation in the liver of fatty acid analogues was measured with sulphur in the 3, 5 and 7 positions relative to the carboxyl end. The activities were 0.81 for sulphur in the 3rd position, 0.61 for sulphur in the 5th position, 0.58 for sulphur in the 7th position, and 0.47 for palmitic acid, the non β-oxidation blocking control. […] However, as the decline is great for going from the 3rd to 5th position, but small going from the 5th to 7th position, it is reasonable to assume that this decline will continue to be less as one moves out the chain, and thus that it will be very far out indeed before no effect (compared to the control) is seen at all.

degradation time in vivo [1] | Structure (SMILES) | activity of mitochondrial β-oxidation in the liver [2] [nmol/min/mg/protein]
substantially increased degradation time | CC#CCCCCCCCCCCCSCC [3-thia-15-heptadecyn] | 
 | CCCCCCCCCCCCCCCC(=O)O [palmitic acid] | 0.47
